The numbers were not newly measured in patent publication US20140349947A1, “HAIR GROWTH AGENT (EMBODIMENTS) AND METHOD FOR HAIR REGROWTH” (priority 2012, published 2014), which cites them from elsewhere.

Experiment in data set [1]: not given
The source holds these as a separate data set.

The mark [2] stands for this setting: in ointments and gels, dose up to 1,000 IU/g.

Regarding Low molecular weight heparin, the Bioavailability entry is on record as “high”.

In the case of heparin sodium [Unfractionated heparin], the Bioavailability entry is reported as “low”. Further, the “Duration of the effects of heparin in tissues” value in data set [1] (after a single skin application) was “up to 8 hours”. The “Part of preparation deposited in the upper layers of skin” value in data set [1] (after application of ointment or gel) is on record as “up to 50%”. In data set [1] (setting [2]), the “Effect on bleeding time” value is reported as “does not affect the bleeding time” and the Systemic effect entry is given as “does not have a systemic effect”.
